In one test the test system is Alternaria solani. Nature of the test: Alternaria solani (early blight of tomato/potato) radial mycelial growth on Potato Dextrose Agar. As to conditions: 168 h, Potato Dextrose Agar, 25° C., 60% relative humidity, seven days, read-out: control compared to the untreated check. It is filed as cell-based. The procedure:
Example 4: Alternaria solani (Early Blight of Tomato/Potato)
Compounds were dissolved in 0.3% DMSO & then added to Potato Dextrose Agar medium just prior to dispensing it into petri dishes. 5 mL medium with compound in the desired concentration was dispensed into 60 mm sterile petri-plates. After solidification each plate was seeded with 5 mm size mycelial disc taken form periphery of actively growing virulent culture plate. Plates were incubated in growth chambers at 25° C. temperature and 60% relative humidity for seven days and radial growth was measured.

The test system of another test is Pyricularia oryzae. Nature of the test: microbe, parasite or virus in culture. The test is classed as cell-based. As to conditions: 168 h, read-out: control compared to the untreated check.
In the next test the test system is Phakopsora pachyrhizi. The test is described as follows: Phakopsora pachyrhizi test in soybean, preventive spray. As to conditions: preventive spray on soybean plants, inoculated one day after treatment, greenhouse 25° C., 90% relative humidity, read-out: control (efficacy, disease severity rating) compared to the untreated check. The test is classed as in vivo. The procedure:
Example 8: Phakopsora pachyrhizi Test in Soybean
Compounds were dissolved in 2% DMSO/Acetone & then mixed with water to the calibrated spray volume of 50 mL and poured into the spray bottles for further applications.
To test the preventive activity of compounds, healthy young soybean plants raised in the greenhouse were sprayed with active compound preparation at the stated application rates inside the spray cabinets using hallowcone nozzles. One day after treatment, the plants were inoculated with spore suspension containing 2.1×10^6 Phakopsora pachyrhizi inoculum. The inoculated plants were then kept in greenhouse chamber at 25° C. temperature & 90% relative humidity for disease expression.
A visual assessment of compound's performance was carried out by rating the disease severity (0-100% scale) on treated plants on 3, 7, 10 & 15 days after application. Efficacy (% control) of the compounds was calculated by comparing the disease rating in the treatment with the one of the untreated control. The sprayed plants were also assessed for compound's plant compatibility by recording symptoms like necrosis, chlorosis & stunting.

Another test concerns Botrytis cinerea. The test is described as follows: Botrytis cinerea (gray mold) radial mycelial growth on Potato Dextrose Agar. As to conditions: 168 h, 22° C., 90% relative humidity, seven days, read-out: control compared to the untreated check. It is filed as cell-based. The procedure: Example 3: Botrytis cinerea (Gray Mold)
Compounds were dissolved in 0.3% DMSO & then added to Potato Dextrose Agar medium just prior to dispensing it into petri dishes. 5 mL medium with compound in the desired concentration was dispensed into 60 mm sterile petri-plates. After solidification, each plate was seeded with 5 mm size mycelial disc taken form periphery of actively growing virulent culture plate. Plates were incubated in growth chambers at 22° C. temperature and 90% relative humidity for seven days and radial growth was measured.

Our source for the inhibition of growth and pest or weed control values is patent US11286242B2 (priority 2018, dated 2022).

On to `COc1ccc(S(C)(=O)=Nc2ccc(-c3noc(C(F)(F)F)n3)cc2)cc1` (stereo not drawn) [Compound 20, (4-methoxyphenyl)(methyl)((4-(5-(trifluoromethyl)-1,2,4-oxadiazol-3-yl)phenyl)imino)-λ^6-sulfanone], for which the inhibition of growth at 300 ppm with Alternaria solani and with Pyricularia oryzae was greater than 70% in each case. Besides, the pest or weed control at 500 ppm in the test with Phakopsora pachyrhizi was greater than 90%.
`CS(=O)(=NC(=O)c1ccc(-c2noc(C(F)(F)F)n2)cc1)c1ccc(F)cc1F` (stereo not drawn) [Compound 47, N-((2,4-difluorophenyl)(methyl)(oxo)-λ^6-sulfaneylidene)-4-(5-(trifluoromethyl)-1,2,4-oxadiazol-3-yl)benzamide]: the inhibition of growth at 300 ppm in the test on Alternaria solani is greater than 70%. Further, the pest or weed control at 500 ppm in the test on Phakopsora pachyrhizi is greater than 90%.
As for `CS(=O)(=NC(=O)c1ccc(-c2noc(C(F)(F)F)n2)cc1)c1nccs1` (stereo not drawn) [Compound 48, N-(methyl(oxo)(thiazol-2-yl)-λ^6-sulfaneylidene)-4-(5-(trifluoromethyl)-1,2,4-oxadiazol-3-yl)benzamide], the inhibition of growth at 300 ppm in the test on Botrytis cinerea and in the test on Alternaria solani was greater than 70% in each case. Besides, the pest or weed control at 500 ppm in the test with Phakopsora pachyrhizi is greater than 90%.
Regarding `CS(=O)(Cc1ccccn1)=NC(=O)c1ccc(-c2noc(C(F)(F)F)n2)cc1` (stereo not drawn) [Compound 52, N-(methyl(oxo)(pyridin-2-ylmethyl)-λ^6-sulfaneylidene)-4-(5-(trifluoromethyl)-1,2,4-oxadiazol-3-yl)benzamide], the inhibition of growth at 300 ppm in the test with Alternaria solani is greater than 70%. Besides, the pest or weed control at 500 ppm with Phakopsora pachyrhizi is greater than 90%.
Consider `COc1ccc(S(C)(=O)=NC(=O)c2ccc(-c3noc(C(F)(F)F)n3)cc2)c(OC)c1` (stereo not drawn) [Compound 56, N-((2,4-dimethoxyphenyl)(methyl)(oxo)-λ^6-sulfaneylidene)-4-(5-(trifluoromethyl)-1,2,4-oxadiazol-3-yl)benzamide], for which the inhibition of growth at 300 ppm with Alternaria solani was greater than 70%. In addition, the pest or weed control at 500 ppm in the test on Phakopsora pachyrhizi is greater than 90%.
As to `CS(=O)(Cc1ccncc1)=NC(=O)c1ccc(-c2noc(C(F)(F)F)n2)cc1` (stereo not drawn) [Compound 59, N-(mehtyl(oxo)(pyridin-4-ylmethyl)-λ^6-sulfaneylidene)-4-(5-(trifluoromethyl)-1,2,4-oxadiazol-3-yl)benzamide], in the test with Alternaria solani, the inhibition of growth at 300 ppm was greater than 70%. The pest or weed control at 500 ppm in the test on Phakopsora pachyrhizi is greater than 90%.
On the same counts, the results for `CS(=O)(Cc1cc(F)ccc1F)=NC(=O)c1ccc(-c2noc(C(F)(F)F)n2)cc1` (stereo not drawn) [Compound 62, N-((2,5-difluorobenzyl)(methyl)(oxo)-λ^6-sulfaneylidene)-4-(5-(trifluoromethyl)-1,2,4-oxadiazol-3-yl)benzamide] are greater than 70% and greater than 90%.
`COc1ccc(S(C)(=O)=NC(=O)c2cccc(-c3noc(C(F)(F)F)n3)c2)cc1` (stereo not drawn) [Compound 71, N-((4-methoxyphenyl)(methyl)(oxo)-λ^6-sulfaneylidene)-3-(5-(trifluoromethyl)-1,2,4-oxadiazol-3-yl)benzamide]: the inhibition of growth at 300 ppm in the test with Alternaria solani is greater than 70%. Also, the pest or weed control at 500 ppm in the test on Phakopsora pachyrhizi is greater than 90%.
Consider `CS(=O)(=NC(=O)c1cccc(-c2noc(C(F)(F)F)n2)c1)c1nccs1` (stereo not drawn) [Compound 73, N-(methyl(oxo)(thiazol-2-yl)-λ^6-sulfaneylidene)-3-(5-(trifluoromethyl)-1,2,4-oxadiazol-3-yl)benzamide], for which the inhibition of growth at 300 ppm in the test with Alternaria solani was greater than 70%.
Turning to `CS(=O)(Cc1ccc(C#N)cc1)=NC(=O)c1cccc(-c2noc(C(F)(F)F)n2)c1` (stereo not drawn) [Compound 75, N-((4-cyanobenzyl)(methyl)(oxo)-λ^6-sulfaneylidene)-3-(5-(trifluoromethyl)-1,2,4-oxadiazol-3-yl)benzamide], the inhibition of growth at 300 ppm in the test with Alternaria solani is greater than 70%. For the same molecule, in the test on Phakopsora pachyrhizi, the pest or weed control at 500 ppm is greater than 90%.
Regarding `CS(=O)(Cc1ccc(C(F)(F)F)cc1)=Nc1ccc(-c2noc(C(F)(F)F)n2)cc1` (stereo not drawn) [Compound 90, methyl((4-(5-(trifluoromethyl)-1,2,4-oxadiazol-3-yl)phenyl)imino)(4-(trifluoromethyl)benzyl)-λ^6-sulfanone], the inhibition of growth at 300 ppm in the test with Botrytis cinerea is greater than 70%.
As to `CS(=O)(Cc1ccccc1F)=Nc1ccc(-c2noc(C(F)(F)F)n2)cc1` (stereo not drawn) [Compound 94, (2-fluorobenzyl)(methyl)((4-(5-(trifluoromethyl)-1,2,4-oxadiazol-3-yl)phenyl)imino)-λ^6-sulfanone], the inhibition of growth at 300 ppm in the test on Alternaria solani is greater than 70%.
For `COc1ccc(S(C)(=O)=Nc2ccc(-c3noc(C(F)(F)F)n3)cc2)c(OC)c1` (stereo not drawn) [Compound 96, (2,4-dimethoxyphenyl)(methyl)((4-(5-(trifluoromethyl)-1,2,4-oxadiazol-3-yl)phenyl)imino)-λ^6-sulfanone], the inhibition of growth at 300 ppm with Alternaria solani and in the test on Pyricularia oryzae was greater than 70% each time. Besides, the pest or weed control at 500 ppm in the test on Phakopsora pachyrhizi is greater than 90%.
Turning to `CS(=O)(Cc1ccc(Cl)c(F)c1)=Nc1ccc(-c2noc(C(F)(F)F)n2)cc1` (stereo not drawn) [Compound 99, (4-chloro-3-florobenzyl)(methyl)((4-(5-(trifluoromethyl)-1,2,4-oxadiazol-3-yl)phenyl)imino)-λ^6-sulfanone], in the test on Alternaria solani, the inhibition of growth at 300 ppm was greater than 70%. Moreover, in the test on Phakopsora pachyrhizi, the pest or weed control at 500 ppm was greater than 90%.
On to `Cc1csc(S(C)(=O)=Nc2ccc(-c3noc(C(F)(F)F)n3)cc2)n1` (stereo not drawn) [Compound 117, methyl(4-methylthiazol-2-yl)((4-(5-(trifluoromethyl)-1,2,4-oxadiazol-3-yl)phenyl)imino)-λ^6-sulfanone], for which the inhibition of growth at 300 ppm in the test on Alternaria solani and in the test with Pyricularia oryzae was greater than 70% throughout.
`Cc1ccc(S(C)(=O)=NCc2ccc(-c3noc(C(F)(F)F)n3)cc2)cc1` (stereo not drawn) [Compound 137, methyl(p-tolyl)((4-(5-(trifluoromethyl)-1,2,4-oxadiazol-3-yl)benzyl)imino)-λ^6-sulfanone]: the inhibition of growth at 300 ppm with Alternaria solani and with Pyricularia oryzae was greater than 70% in each case.
For the molecule `CS(=O)(=NCc1cccc(-c2noc(C(F)(F)F)n2)c1)c1ccccc1` (stereo not drawn) [Compound 138, methyl(phenyl)((3-(5-(trifluoromethyl)-1,2,4-oxadiazol-3-yl)benzyl)imino)-λ^6-sulfanone], the inhibition of growth at 300 ppm in the test on Botrytis cinerea and with Pyricularia oryzae was greater than 70% throughout.
With `COc1ccc(S(C)(=O)=NCc2cccc(-c3noc(C(F)(F)F)n3)c2)cc1` (stereo not drawn) [Compound 139, (4-methoxyphenyl)(methyl)((3-(5-(trifluoromethyl)-1,2,4-oxadiazol-3-yl)benzyl)imino)-λ^6-sulfanone], the inhibition of growth at 300 ppm with Botrytis cinerea and in the test on Pyricularia oryzae was greater than 70% throughout.
In the case of `COc1ccc(S(C)(=O)=NCc2cccc(-c3noc(C(F)(F)F)n3)c2)c(OC)c1` (stereo not drawn) [Compound 140, (2,4-dimethoxyphenyl)(methyl)((3-(5-(trifluoromethyl)-1,2,4-oxadiazol-3-yl)benzyl)imino)-sulfanone], the inhibition of growth at 300 ppm in the test with Botrytis cinerea is greater than 70%.
On to `CS(=O)(=NCc1cccc(-c2noc(C(F)(F)F)n2)c1)c1ccccc1F` (stereo not drawn) [Compound 148, (2-fluorophenyl)(methyl)((3-(5-(trifluoromethyl)-1,2,4-oxadiazol-3-yl)benzyl)imino)-λ^6-sulfanone], for which the inhibition of growth at 300 ppm in the test on Alternaria solani and in the test with Pyricularia oryzae was greater than 70% in each case.
Turning to `Cc1ccc(S(=O)(=O)NC(=O)c2ccc(-c3noc(C(F)(F)F)n3)cc2)cc1` [Compound 153, N-tosyl-4-(5-(trifluoromethyl)-1,2,4-oxadiazol-3-yl)benzamide], the inhibition of growth at 300 ppm in the test with Botrytis cinerea is greater than 70%.
On to `COc1ccc(S(=O)(=O)NC(=O)c2ccc(-c3noc(C(F)(F)F)n3)cc2)cc1` [Compound 157, N-((4-methoxyphenyl)sulfonyl)-4-(5-(trifiuoromethyl)-1,2,4-oxadiazol-3-yl)benzamide], for which the inhibition of growth at 300 ppm in the test with Botrytis cinerea and with Alternaria solani was greater than 70% throughout.
As for `COc1cccc(S(=O)(=O)NC(=O)c2ccc(-c3noc(C(F)(F)F)n3)cc2)c1` [Compound 158, N-((3-methoxyphenyl)sulfonyl)-4-(5-(trifluoromethyl)-1,2,4-oxadiazol-3-yl)benzamide], in the test on Alternaria solani, the inhibition of growth at 300 ppm is greater than 70%.
In the case of `O=C(NS(=O)(=O)c1ccc(Br)cc1)c1ccc(-c2noc(C(F)(F)F)n2)cc1` [Compound 162, N-((4-bromophenyl)sulfonyl)-4-(5-(trifluoromethyl)-1,2,4-oxadiazol-3-yl)benzamide], the inhibition of growth at 300 ppm in the test on Alternaria solani was greater than 70%.
As to `O=C(NS(=O)(=O)c1c(Cl)cccc1Cl)c1ccc(-c2noc(C(F)(F)F)n2)cc1` [Compound 163, N-((2,6-dichlorophenyl)sulfonyl)-4-(5-(trifiuoromethyl)-1,2,4-oxadiazol-3-yl)benzamide], the inhibition of growth at 300 ppm in the test with Alternaria solani was greater than 70%.
